In PubChem BioAssay (NCI):
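Interpolation was linear, between the two tested concentrations surrounding the appropriate level; five concentrations were tested over 48 hours in 96-well plates. At the GI50, growth is halved. TGI denotes the concentration required for complete inhibition of growth.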

Columns and labels:
Assay in all cases: inhibition of tumour cell growth, NCI panel, 48 h
MALME-3M melanoma = test system: MALME-3M melanoma
HT29 colon = test system: HT29 colon
COLO 205 colon = test system: COLO 205 colon
M14 melanoma = test system: M14 melanoma
CCRF-CEM leukemia = test system: CCRF-CEM leukemia
RXF 393 renal = test system: RXF 393 renal
HCC-2998 colon = test system: HCC-2998 colon
NCI-H226 lung = test system: NCI-H226 lung
786-0 renal = test system: 786-0 renal
ACHN renal = test system: ACHN renal

CCOC(=O)CC(=O)Sc1ccccc1
TGI (MALME-3M melanoma): > 100 µM
TGI (HT29 colon): 48.7 µM
TGI (COLO 205 colon): 52.9 µM
TGI (M14 melanoma): 31.7 µM
TGI (CCRF-CEM leukemia): 51.3 µM
TGI (RXF 393 renal): 25.9 µM
TGI (HCC-2998 colon): 96 µM
TGI (NCI-H226 lung): 58.4 µM
TGI (786-0 renal): 37 µM
TGI (ACHN renal): 65.7 µM

OCc1cn(Cc2cccc(Cl)c2)c2ccccc12
GI50 (MALME-3M melanoma): 12.3 µM
TGI (MALME-3M melanoma): 30.6 µM
GI50 (HT29 colon): 1.83 µM
TGI (HT29 colon): 34.3 µM
GI50 (COLO 205 colon): 0.432 µM
TGI (COLO 205 colon): 20.3 µM
GI50 (M14 melanoma): 11.3 µM
TGI (M14 melanoma): 29.6 µM
GI50 (CCRF-CEM leukemia): 11 µM
TGI (CCRF-CEM leukemia): > 69.8 µM
GI50 (RXF 393 renal): 2.43 µM
TGI (RXF 393 renal): 18 µM
GI50 (HCC-2998 colon): 12 µM
TGI (HCC-2998 colon): 28.3 µM
GI50 (NCI-H226 lung): 0.0313 µM
TGI (NCI-H226 lung): 0.222 µM
GI50 (786-0 renal): 5.15 µM
TGI (786-0 renal): 28.1 µM
GI50 (ACHN renal): 5.63 µM
TGI (ACHN renal): 69.2 µM

Cc1c(N=Nc2ccc([N+](=O)[O-])cc2)nc2scc(-c3ccccc3)n12
TGI (MALME-3M melanoma): > 100 µM
TGI (HT29 colon): > 100 µM
TGI (COLO 205 colon): > 100 µM
TGI (M14 melanoma): > 100 µM
TGI (CCRF-CEM leukemia): > 73.4 µM
TGI (RXF 393 renal): > 100 µM
TGI (HCC-2998 colon): > 100 µM
TGI (NCI-H226 lung): > 100 µM
TGI (786-0 renal): > 100 µM
TGI (ACHN renal): > 100 µM

N#CC(C(=O)/C(=N/N)C(C#N)c1ccc(Cl)cc1)c1ccc(Cl)cc1 (stereo not given)
TGI (MALME-3M melanoma): > 100 µM
TGI (HT29 colon): > 100 µM
TGI (COLO 205 colon): > 100 µM
TGI (M14 melanoma): > 100 µM
TGI (CCRF-CEM leukemia): > 100 µM
TGI (RXF 393 renal): > 100 µM
TGI (HCC-2998 colon): > 100 µM
TGI (NCI-H226 lung): > 100 µM
TGI (786-0 renal): > 100 µM
TGI (ACHN renal): > 100 µM

C1CC[N-]CC1.C1CC[N-]CC1.C1CC[N-]CC1.C1CC[N-]CC1.[Cl][Rh][Cl]
GI50 (MALME-3M melanoma): 6.64 µM
TGI (MALME-3M melanoma): 43.4 µM
GI50 (HT29 colon): 7.6 µM
TGI (HT29 colon): 45.8 µM
GI50 (COLO 205 colon): 3.17 µM
TGI (COLO 205 colon): 9.34 µM
GI50 (M14 melanoma): 6.26 µM
TGI (M14 melanoma): > 100 µM
GI50 (CCRF-CEM leukemia): 3.46 µM
TGI (CCRF-CEM leukemia): 72.4 µM
GI50 (RXF 393 renal): 13.8 µM
TGI (RXF 393 renal): 81.1 µM
GI50 (HCC-2998 colon): 8.17 µM
TGI (HCC-2998 colon): 30.3 µM
GI50 (NCI-H226 lung): 4.47 µM
TGI (NCI-H226 lung): > 100 µM
GI50 (786-0 renal): 41.4 µM
TGI (786-0 renal): > 100 µM
GI50 (ACHN renal): 50.1 µM
TGI (ACHN renal): > 100 µM

NC(=O)c1cnc(N[C@@H]2CCCC[C@@H]2N)nc1Nc1cccc(-n2nccn2)c1
GI50 (MALME-3M melanoma): 3.06 µM
TGI (MALME-3M melanoma): 10.4 µM
GI50 (HT29 colon): 2.82 µM
TGI (HT29 colon): 11.5 µM
GI50 (COLO 205 colon): 1.81 µM
TGI (COLO 205 colon): 4.56 µM
GI50 (M14 melanoma): 2.11 µM
TGI (M14 melanoma): 6.14 µM
GI50 (CCRF-CEM leukemia): 5 µM
TGI (CCRF-CEM leukemia): 19.8 µM
GI50 (RXF 393 renal): 2.34 µM
TGI (RXF 393 renal): 8.05 µM
GI50 (HCC-2998 colon): 1.99 µM
TGI (HCC-2998 colon): 4.82 µM
GI50 (NCI-H226 lung): 4.73 µM
TGI (NCI-H226 lung): 17.8 µM
GI50 (786-0 renal): 5.57 µM
TGI (786-0 renal): 17.6 µM
GI50 (ACHN renal): 2.69 µM
TGI (ACHN renal): 11.1 µM

COc1ccc(/C=C/C(=O)c2cc3c(N)c(C(=O)Nc4ccccc4Cl)sc3nc2C)cc1
GI50 (MALME-3M melanoma): 0.736 µM
TGI (MALME-3M melanoma): 9.21 µM
GI50 (HT29 colon): 1.98 µM
TGI (HT29 colon): > 50 µM
GI50 (COLO 205 colon): 17.2 µM
TGI (COLO 205 colon): > 50 µM
GI50 (M14 melanoma): 0.481 µM
TGI (M14 melanoma): > 50 µM
GI50 (CCRF-CEM leukemia): 10.4 µM
TGI (CCRF-CEM leukemia): > 50 µM
GI50 (RXF 393 renal): 0.846 µM
TGI (RXF 393 renal): 3.6 µM
GI50 (HCC-2998 colon): 8 µM
TGI (HCC-2998 colon): > 50 µM
GI50 (NCI-H226 lung): 2.43 µM
TGI (NCI-H226 lung): 17.4 µM
GI50 (786-0 renal): 0.839 µM
TGI (786-0 renal): 2.18 µM
GI50 (ACHN renal): 1.74 µM
TGI (ACHN renal): 10.8 µM

CC(=O)OC1C(=O)C(O)C(C)OC1O[C@@H]1C[C@@]2(C)[C@@H]3CC=C4[C@@H](C[C@H](O)C(=O)C4(C)C)[C@]3(C)C(=O)C[C@]2(C)[C@H]1[C@@](C)(O)C(=O)/C=C/C(C)(C)O (stereo not given in full)
TGI (MALME-3M melanoma): 9.83 µM
TGI (HT29 colon): > 10 µM
TGI (COLO 205 colon): > 6.77 µM
TGI (M14 melanoma): > 10 µM
TGI (CCRF-CEM leukemia): > 7.21 µM
TGI (RXF 393 renal): 1.43 µM
TGI (HCC-2998 colon): 8.32 µM
TGI (NCI-H226 lung): 2 µM
TGI (786-0 renal): 4.64 µM
TGI (ACHN renal): 7.38 µM

CCCN(CCCCC(NC(C)=O)C(=O)NCc1ccccc1)C(=O)NCCCl (stereo not given)
TGI (MALME-3M melanoma): > 100 µM
TGI (HT29 colon): > 100 µM
TGI (COLO 205 colon): > 100 µM
TGI (M14 melanoma): > 100 µM
TGI (CCRF-CEM leukemia): > 100 µM
TGI (RXF 393 renal): > 100 µM
TGI (HCC-2998 colon): > 100 µM
TGI (NCI-H226 lung): > 100 µM
TGI (786-0 renal): > 100 µM
TGI (ACHN renal): > 100 µM

O=C(/C=C/c1ccc(OCC(=O)N2CCN(c3ccccc3)CC2)cc1)c1ccc(Cl)cc1
TGI (MALME-3M melanoma): > 100 µM
TGI (HT29 colon): > 100 µM
TGI (COLO 205 colon): > 100 µM
TGI (M14 melanoma): > 100 µM
TGI (CCRF-CEM leukemia): > 100 µM
TGI (RXF 393 renal): 55.1 µM
TGI (HCC-2998 colon): > 100 µM
TGI (NCI-H226 lung): 97.9 µM
TGI (786-0 renal): 73.7 µM
TGI (ACHN renal): 69.7 µM

Cc1cn(C2CC(F)C(CO)O2)c(=O)[nH]c1=O (stereo not given)
GI50 (MALME-3M melanoma): > 100 µM
TGI (MALME-3M melanoma): > 100 µM
GI50 (HT29 colon): 98.8 µM
TGI (HT29 colon): > 100 µM
GI50 (COLO 205 colon): > 100 µM
TGI (COLO 205 colon): > 100 µM
GI50 (M14 melanoma): > 100 µM
TGI (M14 melanoma): > 100 µM
GI50 (CCRF-CEM leukemia): > 100 µM
TGI (CCRF-CEM leukemia): > 100 µM
GI50 (RXF 393 renal): > 100 µM
TGI (RXF 393 renal): > 100 µM
GI50 (HCC-2998 colon): > 100 µM
TGI (HCC-2998 colon): > 100 µM
GI50 (NCI-H226 lung): > 100 µM
TGI (NCI-H226 lung): > 100 µM
GI50 (786-0 renal): > 100 µM
TGI (786-0 renal): > 100 µM
GI50 (ACHN renal): > 100 µM
TGI (ACHN renal): > 100 µM

CC1=C([Se]CC(OC(=O)CC[Se]c2ccccc2)C(=O)NCCCCCC(=O)OCc2ccccc2)C(=O)c2ccccc2C1=O (stereo not given)
GI50 (MALME-3M melanoma): 2.31 µM
TGI (MALME-3M melanoma): 5.92 µM
GI50 (HT29 colon): 3.65 µM
TGI (HT29 colon): 12.1 µM
GI50 (COLO 205 colon): 2.15 µM
TGI (COLO 205 colon): 3.93 µM
GI50 (M14 melanoma): 2.04 µM
TGI (M14 melanoma): 4.8 µM
GI50 (CCRF-CEM leukemia): 3.61 µM
TGI (CCRF-CEM leukemia): > 100 µM
GI50 (RXF 393 renal): 1.91 µM
TGI (RXF 393 renal): 5.64 µM
GI50 (HCC-2998 colon): 2.9 µM
TGI (HCC-2998 colon): 7.46 µM
GI50 (NCI-H226 lung): 2.75 µM
TGI (NCI-H226 lung): 7.07 µM
GI50 (786-0 renal): 3.18 µM
TGI (786-0 renal): 8.36 µM
GI50 (ACHN renal): 3.18 µM
TGI (ACHN renal): 13.8 µM

CC(CN(CP(=O)([O-])[O-])CP(=O)([O-])[O-])N(CP(=O)([O-])[O-])CP(=O)([O-])[O-].N.N.[Pt+2] (stereo not given)
GI50 (MALME-3M melanoma): > 100 µM
TGI (MALME-3M melanoma): > 100 µM
GI50 (HT29 colon): > 100 µM
TGI (HT29 colon): > 100 µM
GI50 (COLO 205 colon): > 100 µM
TGI (COLO 205 colon): > 100 µM
GI50 (M14 melanoma): > 100 µM
TGI (M14 melanoma): > 100 µM
GI50 (CCRF-CEM leukemia): > 100 µM
TGI (CCRF-CEM leukemia): > 100 µM
GI50 (RXF 393 renal): > 100 µM
TGI (RXF 393 renal): > 100 µM
GI50 (HCC-2998 colon): > 100 µM
TGI (HCC-2998 colon): > 100 µM
GI50 (NCI-H226 lung): > 100 µM
TGI (NCI-H226 lung): > 100 µM
GI50 (786-0 renal): > 100 µM
TGI (786-0 renal): > 100 µM
GI50 (ACHN renal): > 100 µM
TGI (ACHN renal): > 100 µM

CCCC[C@H]1C(=O)O[C@H](C)[C@H](NC(=O)c2cccc(NC=O)c2O)C(=O)O[C@@H](C)[C@@H]1OC(=O)CC(C)C
TGI (MALME-3M melanoma): 50.9 µM
TGI (HT29 colon): 27.4 µM
TGI (COLO 205 colon): 31.6 µM
TGI (M14 melanoma): 47.7 µM
TGI (CCRF-CEM leukemia): 6.29 µM
TGI (RXF 393 renal): 24.6 µM
TGI (HCC-2998 colon): 35.1 µM
TGI (NCI-H226 lung): 23.8 µM
TGI (786-0 renal): 35 µM
TGI (ACHN renal): 36.1 µM

COc1ccc(/C=N/N=C(\N)NO)cc1OC
TGI (MALME-3M melanoma): > 100 µM
TGI (HT29 colon): > 100 µM
TGI (COLO 205 colon): > 100 µM
TGI (M14 melanoma): 96.9 µM
TGI (CCRF-CEM leukemia): > 100 µM
TGI (RXF 393 renal): 67.4 µM
TGI (HCC-2998 colon): > 100 µM
TGI (NCI-H226 lung): > 100 µM
TGI (786-0 renal): > 100 µM
TGI (ACHN renal): > 100 µM

CC(=O)CCCCCCCCCCCC[C@@H]1CC[C@H](C)[C@H](O)N1
TGI (MALME-3M melanoma): > 100 µM
TGI (HT29 colon): > 100 µM
TGI (COLO 205 colon): > 100 µM
TGI (M14 melanoma): > 100 µM
TGI (CCRF-CEM leukemia): > 100 µM
TGI (RXF 393 renal): > 100 µM
TGI (HCC-2998 colon): > 100 µM
TGI (NCI-H226 lung): > 100 µM
TGI (786-0 renal): > 100 µM
TGI (ACHN renal): > 100 µM
